Test results taken from US20060045905A1, “Composition for repressing transformation growth factor beta” (Taiyokagaku Co., Ltd., priority 2004, published 2006).

Test system: mice
Format: in vivo
Settings: oral administration of theanine by 5 g/kg
Excerpt: Theanine used in the invention has a high security. […] Furthermore, theanine is known as a principal component of deliciousness of tea and used as a food additive for use as gustatory. An amount of theanine to be added is not limited under the Food Sanitation Law. Moreover, differing from conventional medical substances, theanine has no adverse side effect. Consequently, the composition of the invention can be used as a safe and effective composition for repressing TGF-β.

In the case of `CCNC(=O)CC[C@H](N)C(=O)O` [theanine, L-theanine], the “mortality in acute toxicity test” value is reported as “no mice died”.
